Source: patent US20240376097A1, “BCL-2 Inhibitor” (BeiGene Ltd., priority 2020, published 2024)
pIC50: −log10 of the molar value. Read-outs that look alike come from different tables or passages of the source.

Columns and labels:
[1] = tested on: recombinant human Bcl-2-G101V protein; experiment: Bcl-2-G101V TR-FRET Assay; format: binding; conditions: for Ratio of Bcl-2 G101V/WT: ratio of biochemical IC50 Bcl-2 G101V / Bcl-2 WT
Outline: (§1)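 TR-FRET read at excitation 337 nm with emission at 490 nm and 520 nm. Inhibition of Bcl-2-G101V binding to its ligand across increasing compound concentrations was calculated from the 490/520 nm fluorescence ratio, and IC50 values came from four-parameter logistic fits.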

[2] = target: recombinant human Bcl-2-G101V protein (Homo sapiens (Human), UniProt P10415, G101V); experiment: Bcl-2-G101V TR-FRET Assay; format: binding; conditions: Bcl-2 G101V mutant, TR-FRET; read-out: Biochemical assay (IC50, nM) Bcl-2 G101V
Outline: as §1

[3] = tested on: RS4;11 (BCL-2 dependent acute lymphoblastic leukemia cell line); experiment: RS4;11 Cell Proliferation Assay; format: cell-based; conditions: Homo sapiens, RS4-11, RS4;11 cells, read-out: Cellular proliferation assay (IC50, nM) RS4
Outline: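 Viability measured via CellTiter-Glo luminescence after a 48 h, 37 °C exposure to compounds (10 points, highest 1 μM). Seeding was 50,000 RS4;11 cells per well in 10% FBS RPMI-1640; IC50 given as mean.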

[4] = tested on: BCL-2 G101V knock-in cell line H96 (derive from RS4;11); experiment: Bcl 2-G101V Knock-In RS4;11 Cell Proliferation Assay; format: cell-based; conditions: Homo sapiens, RS4;11 Bcl-2 G101V knock-in clone H96, 48 hrs, CellTiter-GLO, read-out: Cellular proliferation assay (IC50, nM) RS4
Outline: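 CellTiter-Glo luminescence after 48 h, 37 °C compound treatment (10 concentrations, maximum 1 μM or 10 μM) gave mean IC50 values. Cells were 50,000 per well of H96, a BCL2-G101V knock-in single clone derived from RS4;11 by Cas9 editing.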

[5] = target: recombinant human Bcl-2 D103Y protein (Homo sapiens (Human), UniProt P10415, D103Y); experiment: Bcl-2-D103Y Biochemical Assay (TR-FRET); format: binding; conditions: for pIC50: TR-FRET, FITC labeled Bak peptide; for Ratio of Bcl-2 D103Y/Bcl-2 WT: ratio of IC50
Outline: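 Compounds titrated against the Bcl-2 D103Y–ligand interaction; inhibition derived from the TR-FRET emission ratio 490 nm/520 nm after 337 nm excitation. Four-parameter logistic fitting gave IC50.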

[6] = target: Recombinant human Bcl-2 protein (Homo sapiens (Human), UniProt P10415); experiment: Bcl-2 TR-FRET Assay; format: binding
Outline: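 In pH 7.5 phosphate buffer containing NaCl, EDTA, Tween-20 and BSA, 0.05 nM Bcl-2 saw serially diluted compound for 0.5 h before 0.5 nM FITC-Bak peptide was added. Signal ratio at 520/490 nm after 1 h yielded IC50.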

[7] = Bcl-2 wild type, TR-FRET, read-out: Biochemical assay (IC50, nM) Bcl-2 WT
[8] = wild type Bcl-2, unit inferred, read-out: Bcl-2 WT

| Compound | Ratio of Bcl-2 G101V/WT [1] | IC50 [2] [nM] | IC50 [3] [nM] | IC50 [4] [nM] | pIC50 [5] | Ratio of Bcl-2 D103Y/Bcl-2 WT [5] | IC50 [6, 7] [nM] | IC50 [6, 8] [nM] | ratio of IC50 of Bcl-2 G101V/Bcl-2 wt, compared with Example F132b in WO2019210828 and ABT-199 (venetoclax) ([1]; comparison in words) | ratio of Bcl-2 D103Y/Bcl-2 wt, compared with F91b in WO2019210828 ([5]; comparison in words) |
| --- | --- | --- | --- | --- | --- | --- | --- | --- | --- | --- |
| COc1nn(C)cc1CN1CCN(C2CC3(CCN(c4ccc(C(=O)NS(=O)(=O)c5ccc(NC[C@H]6CC[C@](C)(O)CC6)c([N+](=O)[O-])c5)c(Oc5cnc6[nH]ccc6c5)c4)CC3)C2)C(c2ccccc2C(C)C)C1 (stereo partly shown) [Example 71, 2-((1H-pyrrolo[2,3-b]pyridin-5-yl)oxy)-N-((4-((((1r,4r)-4-hydroxy-4-methylcyclohexyl)methyl)amino)-3-nitrophenyl)sulfonyl)-4-(2-(2-(2-isopropylphenyl)-4-((3-methoxy-1-methyl-1H-pyrazol-4-yl)methyl)piperazin-1-yl)-7-azaspiro[3.5]nonan-7-yl)benzamide] | 8.3 | 0.17 | 0.43 | 2 | 9.82 | 7.6 | 0.02 | 0.02 |  |  |
| COc1cc(CN2CCN(C3CC4(C3)CN(c3ccc(C(=O)NS(=O)(=O)c5ccc(NC[C@H]6CC[C@](C)(O)CC6)c([N+](=O)[O-])c5)c(Oc5cnc6[nH]cc(F)c6c5)c3)C4)[C@H](c3ccccc3C(C)C)C2)ccc1OC(C)C [Example 349, 2-((3-fluoro-1H-pyrrolo[2,3-b]pyridin-5-yl)oxy)-N-((4-((((1r,4r)-4-hydroxy-4-methylcyclohexyl)methyl)amino)-3-nitrophenyl)sulfonyl)-4-(6-((R)-4-(4-isopropoxy-3-methoxybenzyl)-2-(2-isopropylphenyl)piperazin-1-yl)-2-azaspiro[3.3]heptan-2-yl) benzamide] | 2.2 | 0.43 | 0.16 | 0.44 | 9.77 | 0.9 | 0.2 | 0.2 |  |  |
| COc1cc(CN2CCN(C3CC4(CCN(c5ccc(C(=O)NS(=O)(=O)c6ccc(NC[C@H]7CC[C@](C)(O)CC7)c([N+](=O)[O-])c6)c(Oc6cnc7[nH]cc(F)c7c6)c5)CC4)C3)[C@H](c3ccccc3C(C)C)C2)cc2c1OCCC2 [Example 299, 2-((3-fluoro-1H-pyrrolo[2,3-b]pyridin-5-yl)oxy)-N-((4-((((1r,4r)-4-hydroxy-4-methylcyclohexyl)methyl)amino)-3-nitrophenyl)sulfonyl)-4-(2-((R)-2-(2-isopropylphenyl)-4-((8-methoxychroman-6-yl)methyl)piperazin-1-yl)-7-azaspiro[3.5]nonan-7-yl)benzamide] | 1.9 | 0.25 | 0.27 | 0.47 | 9.89 | 1.0 | 0.13 | 0.13 |  |  |
| CC(C)c1ccccc1C1CN(Cc2ccccc2)CCN1C1CC2(CCN(c3ccc(C(=O)NS(=O)(=O)c4ccc(NCC5(F)CCOCC5)c([N+](=O)[O-])c4)c(Oc4cnc5[nH]ccc5c4)c3)CC2)C1 (stereo not shown) [Example 27, 2-((1H-pyrrolo[2,3-b]pyridin-5-yl)oxy)-4-(2-(4-benzyl-2-(2-isopropylphenyl)piperazin-1-yl)-7-azaspiro[3.5]nonan-7-yl)-N-((4-(((4-fluorotetrahydro-2H-pyran-4-yl)methyl)amino)-3-nitrophenyl)sulfonyl)benzamide] | 10.0 | 2.7 | 1.05 | 7.77 | 9.31 | 1.8 | 0.27 | 0.27 |  |  |
| CC(C)c1ccccc1C1CN(CC2CCCCC2)CCN1C1CC2(CCN(c3ccc(C(=O)NS(=O)(=O)c4ccc(NC[C@H]5CC[C@](C)(O)CC5)c([N+](=O)[O-])c4)c(Oc4cnc5[nH]ccc5c4)c3)CC2)C1 (stereo partly shown) [Example 16, 2-((1H-pyrrolo[2,3-b]pyridin-5-yl)oxy)-4-(2-(4-(cyclohexylmethyl)-2-(2-isopropylphenyl)piperazin-1-yl)-7-azaspiro[3.5]nonan-7-yl)-N-((4-((((1r,4r)-4-hydroxy-4-methylcyclohexyl)methyl)amino)-3-nitrophenyl)sulfonyl)benzamide] | 6.5 | 1.7 | 0.81 | 8.6 | 9.20 | 2.5 | 0.26 | 0.26 | much lower | significantly lower |
| COCCN1CCN(C2CC3(CCN(c4ccc(C(=O)NS(=O)(=O)c5cc6c(c([N+](=O)[O-])c5)N[C@H](C[C@H]5CC[C@H](O)CC5)CO6)c(Oc5cnc6[nH]ccc6c5)c4)CC3)C2)C(c2ccccc2C(C)C)C1 (stereo partly drawn) [Example 14, 2-((1H-pyrrolo[2,3-b]pyridin-5-yl)oxy)-N-(((R)-3-(((1r, 4R)-4-hydroxycyclohexyl)methyl)-5-nitro-3,4-dihydro-2H-benzo[b][1,4]oxazin-7-yl)sulfonyl)-4-(2-(2-(2-isopropylphenyl)-4-(2-methoxyethyl)piperazin-1-yl)-7-azaspiro[3.5]nonan-7-yl)benzamide] | 14.3 | 0.093 | 0.45 | 5.16 | 10.08 | 13 | 0.0065 | 0.0065 |  |  |
| COc1cc(CN2CCN(C3CC4(C3)CN(c3ccc(C(=O)NS(=O)(=O)c5ccc(NC[C@H]6CC[C@](C)(O)CC6)c([N+](=O)[O-])c5)c(Oc5cnc6[nH]cc(F)c6c5)c3)C4)[C@H](c3ccccc3C(C)C)C2)ccc1NC(C)C [Example 360] | 2.2 | 0.5 | 0.05 | 0.11 | 9.51 | 1.4 | 0.23 | 0.23 |  |  |
| CC(C)c1ccccc1[C@@H]1CN(Cc2ccnc3c2OCC(C)(C)O3)CCN1C1CC2(C1)CN(c1ccc(C(=O)NS(=O)(=O)c3ccc(NC[C@H]4CC[C@](C)(O)CC4)c([N+](=O)[O-])c3)c(Oc3cnc4[nH]cc(F)c4c3)c1)C2 [Example 317] | 3.6 | 0.12 | 0.19 | 0.43 | 10.24 | 1.7 | 0.033 | 0.033 |  |  |
| COc1ccc(CN2CCN(C3CC4(CCN(c5ccc(C(=O)NS(=O)(=O)c6ccc(NC[C@H]7CC[C@](C)(O)CC7)c([N+](=O)[O-])c6)c(Oc6cc7c(F)c[nH]c7nc6C)c5)CC4)C3)[C@H](c3ccccc3C(C)C)C2)cc1 [Example 125, 2-((3-fluoro-6-methyl-1H-pyrrolo [2,3-b]pyridin-5-yl)oxy)-N-((4-((((1r,4r)-4-hydroxy-4-methylcyclohexyl)methyl)amino)-3-nitrophenyl)sulfonyl)-4-(2-((R)-2-(2-isopropylphenyl)-4-(4-methoxybenzyl)piperazin-1-yl)-7-azaspiro[3.5]nonan-7-yl) benzamide] | 2.4 | 0.71 | 0.15 | 0.68 | 9.48 | 1.1 | 0.3 | 0.3 |  |  |
| COC1C2CC3CCC(CN4CCN(C5CC6(C5)CN(c5ccc(C(=O)NS(=O)(=O)c7ccc(NC[C@H]8CC[C@](C)(O)CC8)c([N+](=O)[O-])c7)c(Oc7cnc8[nH]cc(F)c8c7)c5)C6)[C@H](c5ccccc5C(C)C)C4)(C2)CC31 (stereo partly drawn) [Example 355, 2-((3-fluoro-1H-pyrrolo[2,3-b]pyridin-5-yl)oxy)-N-((4-((((1r,4r)-4-hydroxy-4-methylcyclohexyl)methyl)amino)-3-nitrophenyl)sulfonyl)-4-(6-((2R)-2-(2-isopropylphenyl)-4-((3-methoxyoctahydro-5H-2,5-methanoinden-5-yl)methyl)piperazin-1-yl)-2-azaspiro[3.3]heptan-2-yl)benzamide] | 3.6 | 1.1 | 0.2 | 2.8 | 8.74 | 5.8 | 0.31 | 0.31 |  |  |
